PubChem BioAssay (NCI)
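Cells were grown in 96-well plates and exposed to each compound for 48 hours at five concentrations; endpoints were interpolated linearly between bracketing concentrations, or set to the highest concentration if not reached. GI50 marks 50% less growth. TGI marks complete inhibition of growth.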

Key:
Assay in all cases: NCI-60 cell line screen, 48 h
786-0 renal = test system: 786-0 renal
A498 renal = test system: A498 renal
A549 NSCLC = test system: A549 NSCLC
ACHN renal = test system: ACHN renal
BT-549 breast = test system: BT-549 breast
CAKI-1 renal = test system: CAKI-1 renal
CCRF-CEM leukemia = test system: CCRF-CEM leukemia
COLO 205 colon = test system: COLO 205 colon
DU-145 prostate = test system: DU-145 prostate
EKVX NSCLC = test system: EKVX NSCLC
HCC-2998 colon = test system: HCC-2998 colon
HCT-116 colon = test system: HCT-116 colon
HCT-15 colon = test system: HCT-15 colon
HL-60(TB) leukemia = test system: HL-60(TB) leukemia
HOP-62 NSCLC = test system: HOP-62 NSCLC
HOP-92 NSCLC = test system: HOP-92 NSCLC
HS 578T breast = test system: HS 578T breast
HT29 colon = test system: HT29 colon
IGROV1 ovarian = test system: IGROV1 ovarian
K-562 leukemia = test system: K-562 leukemia
KM12 colon = test system: KM12 colon
LOX IMVI melanoma = test system: LOX IMVI melanoma
M14 melanoma = test system: M14 melanoma
MALME-3M melanoma = test system: MALME-3M melanoma
MCF7 breast = test system: MCF7 breast
MDA-MB-231 breast = test system: MDA-MB-231 breast
MDA-MB-435 = test system: MDA-MB-435
MOLT-4 leukemia = test system: MOLT-4 leukemia
NCI-H226 lung = test system: NCI-H226 lung
NCI-H23 lung = test system: NCI-H23 lung
NCI-H460 lung = test system: NCI-H460 lung
NCI-H522 lung = test system: NCI-H522 lung
NCI/ADR-RES ovarian = test system: NCI/ADR-RES ovarian
OVCAR-3 ovarian = test system: OVCAR-3 ovarian
OVCAR-4 ovarian = test system: OVCAR-4 ovarian
OVCAR-5 ovarian = test system: OVCAR-5 ovarian
OVCAR-8 ovarian = test system: OVCAR-8 ovarian
PC-3 prostate = test system: PC-3 prostate
RPMI-8226 leukemia = test system: RPMI-8226 leukemia
RXF 393 renal = test system: RXF 393 renal
SF-268 CNS = test system: SF-268 CNS
SF-295 CNS = test system: SF-295 CNS
SF-539 CNS = test system: SF-539 CNS
SK-MEL-2 melanoma = test system: SK-MEL-2 melanoma
SK-MEL-28 melanoma = test system: SK-MEL-28 melanoma
SK-MEL-5 melanoma = test system: SK-MEL-5 melanoma
SK-OV-3 ovarian = test system: SK-OV-3 ovarian
SN12C renal = test system: SN12C renal
SNB-19 CNS = test system: SNB-19 CNS
SNB-75 CNS = test system: SNB-75 CNS
SR leukemia = test system: SR leukemia
SW-620 colon = test system: SW-620 colon
T-47D breast = test system: T-47D breast
TK-10 renal = test system: TK-10 renal
U251 CNS = test system: U251 CNS
UACC-257 melanoma = test system: UACC-257 melanoma
UACC-62 melanoma = test system: UACC-62 melanoma
UO-31 renal = test system: UO-31 renal

Structure (SMILES): CN1CCN(c2ccc(Nc3nc(NCCNS(=O)(=O)c4ccc5ccccc5c4)c4sccc4n3)cc2)CC1
- GI50 (786-0 renal): 2.69 µM
- TGI (786-0 renal): 8.16 µM
- GI50 (A498 renal): 19.2 µM
- TGI (A498 renal): 34 µM
- GI50 (A549 NSCLC): 9.03 µM
- TGI (A549 NSCLC): 26.8 µM
- GI50 (ACHN renal): 8.51 µM
- TGI (ACHN renal): 20.7 µM
- GI50 (BT-549 breast): 12.4 µM
- TGI (BT-549 breast): 24.9 µM
- GI50 (CAKI-1 renal): 3.87 µM
- TGI (CAKI-1 renal): 15.2 µM
- GI50 (CCRF-CEM leukemia): 3.52 µM
- TGI (CCRF-CEM leukemia): 13.9 µM
- GI50 (COLO 205 colon): 2.22 µM
- TGI (COLO 205 colon): 4.99 µM
- GI50 (DU-145 prostate): 12 µM
- TGI (DU-145 prostate): 25 µM
- GI50 (EKVX NSCLC): 13 µM
- TGI (EKVX NSCLC): 26.3 µM
- GI50 (HCC-2998 colon): 3.34 µM
- TGI (HCC-2998 colon): 12.5 µM
- GI50 (HCT-116 colon): 2.21 µM
- TGI (HCT-116 colon): 5.64 µM
- GI50 (HCT-15 colon): 2.31 µM
- TGI (HCT-15 colon): 5.59 µM
- GI50 (HL-60(TB) leukemia): 1.99 µM
- TGI (HL-60(TB) leukemia): 4.04 µM
- GI50 (HOP-62 NSCLC): 15 µM
- TGI (HOP-62 NSCLC): 29.2 µM
- GI50 (HOP-92 NSCLC): 3.31 µM
- TGI (HOP-92 NSCLC): 16.1 µM
- GI50 (HS 578T breast): 14.1 µM
- TGI (HS 578T breast): 46.8 µM
- GI50 (HT29 colon): 3.31 µM
- TGI (HT29 colon): 12.3 µM
- GI50 (IGROV1 ovarian): 11 µM
- TGI (IGROV1 ovarian): 23.4 µM
- GI50 (K-562 leukemia): 2.27 µM
- TGI (K-562 leukemia): 7.15 µM
- GI50 (KM12 colon): 16.2 µM
- TGI (KM12 colon): 35.7 µM
- GI50 (LOX IMVI melanoma): 1.75 µM
- TGI (LOX IMVI melanoma): 3.36 µM
- GI50 (M14 melanoma): 1.88 µM
- TGI (M14 melanoma): 3.4 µM
- GI50 (MALME-3M melanoma): 1.8 µM
- TGI (MALME-3M melanoma): 3.28 µM
- GI50 (MCF7 breast): 4.04 µM
- TGI (MCF7 breast): 15.7 µM
- GI50 (MDA-MB-231 breast): 3.87 µM
- TGI (MDA-MB-231 breast): 14.8 µM
- GI50 (MDA-MB-435): 3.34 µM
- TGI (MDA-MB-435): 11.8 µM
- GI50 (MOLT-4 leukemia): 4.55 µM
- TGI (MOLT-4 leukemia): 24.1 µM
- GI50 (NCI-H226 lung): 14.2 µM
- TGI (NCI-H226 lung): 28.3 µM
- GI50 (NCI-H23 lung): 13.3 µM
- TGI (NCI-H23 lung): 26.9 µM
- GI50 (NCI-H460 lung): 12.1 µM
- TGI (NCI-H460 lung): 27.2 µM
- GI50 (NCI-H522 lung): 7.16 µM
- TGI (NCI-H522 lung): 21.6 µM
- GI50 (NCI/ADR-RES ovarian): 14.8 µM
- TGI (NCI/ADR-RES ovarian): 38.3 µM
- GI50 (OVCAR-3 ovarian): 10.7 µM
- TGI (OVCAR-3 ovarian): 28.1 µM
- GI50 (OVCAR-4 ovarian): 10.3 µM
- TGI (OVCAR-4 ovarian): 28.2 µM
- GI50 (OVCAR-5 ovarian): 11.5 µM
- TGI (OVCAR-5 ovarian): 23.7 µM
- GI50 (OVCAR-8 ovarian): 6.65 µM
- TGI (OVCAR-8 ovarian): 19.9 µM
- GI50 (PC-3 prostate): 11.4 µM
- TGI (PC-3 prostate): 31.1 µM
- GI50 (RPMI-8226 leukemia): 2.46 µM
- TGI (RPMI-8226 leukemia): 6.18 µM
- GI50 (RXF 393 renal): 2.33 µM
- TGI (RXF 393 renal): 6.58 µM
- GI50 (SF-268 CNS): 11.5 µM
- TGI (SF-268 CNS): 30.2 µM
- GI50 (SF-295 CNS): 11.8 µM
- TGI (SF-295 CNS): 24.1 µM
- GI50 (SF-539 CNS): 1.91 µM
- TGI (SF-539 CNS): 4.05 µM
- GI50 (SK-MEL-2 melanoma): 19.6 µM
- TGI (SK-MEL-2 melanoma): 36.1 µM
- GI50 (SK-MEL-28 melanoma): 2.21 µM
- TGI (SK-MEL-28 melanoma): 5 µM
- GI50 (SK-MEL-5 melanoma): 3.27 µM
- TGI (SK-MEL-5 melanoma): 11.3 µM
- GI50 (SK-OV-3 ovarian): 19.4 µM
- TGI (SK-OV-3 ovarian): 35.6 µM
- GI50 (SN12C renal): 13.1 µM
- TGI (SN12C renal): 26.3 µM
- GI50 (SNB-19 CNS): 16.3 µM
- TGI (SNB-19 CNS): 30 µM
- GI50 (SNB-75 CNS): 11.6 µM
- TGI (SNB-75 CNS): 24.2 µM
- GI50 (SR leukemia): 2.57 µM
- TGI (SR leukemia): 7.42 µM
- GI50 (SW-620 colon): 6.41 µM
- TGI (SW-620 colon): 21.8 µM
- GI50 (T-47D breast): 3.71 µM
- TGI (T-47D breast): 16.9 µM
- GI50 (TK-10 renal): 21.5 µM
- TGI (TK-10 renal): 37.3 µM
- GI50 (U251 CNS): 3.21 µM
- TGI (U251 CNS): 12 µM
- GI50 (UACC-257 melanoma): 1.84 µM
- TGI (UACC-257 melanoma): 3.56 µM
- GI50 (UACC-62 melanoma): 11.7 µM
- TGI (UACC-62 melanoma): 24 µM
- GI50 (UO-31 renal): 12.4 µM
- TGI (UO-31 renal): 25.5 µM
